From US4575498A, “Method for restoring depleted purine nucleotide pools” (priority 1983, dated 1986)

Legend:
cardiac muscle = assay: AICAriboside infusion in normal myocardium: nucleotide, nucleoside and base content of cardiac muscle biopsies; settings: for TAN: total adenine nucleotide
postischemic myocardium = assay: Myocardial nucleotide and creatine phosphate content, coronary occlusion and reperfusion; type: in vivo, dogs
Procedure: Catheters were placed in the left atrium and aorta, and a snare positioned around the left anterior descending coronary artery in 15 open-chest dogs. Regional myocardial blood flow was measured and transmural tissue samples were obtained using known techniques. Blood flow measurements and tissue samples were obtained prior to and just before release of a 12-minute coronary occlusion. The chest was closed and the animals allowed to awaken. Twenty-four hours later, the animals were anesthetized, the chest opened, blood flow measured, and tissue samples obtained. No hemodynamic measurements were made on the animals.
In seven animals, 200 mM AICAriboside (Sigma Chemical Co.) was infused into the left atrial catether at either 14 μmol/min (n=2) or 37 μmol/min (n=5) beginning with coronary occlusion and continuing for 24 hours. Eight control animals were infused with an equal volume of saline over 24 hours.
Nucleotide and creatine phosphate analyses were performed by high performance liquid chromatography on acid extracts of the tissue as previously described. Nucleotide analysis is described in Example 1, and creatine phosphate analysis is described in Juengling and Kammermeier, Anal. Biochem., 102, 358-361 (1980).
All comparisons between AICAriboside and saline treated animals were done by unpaired analyses.

[1] = cardiac muscle, 10 min postinfusion
[2] = cardiac muscle, 10 min postinfusion, P < 0.05 vs control
[3] = cardiac muscle, 15 min of AICAriboside infusion
[4] = cardiac muscle, 20 min postinfusion
[5] = cardiac muscle, 20 min postinfusion, P < 0.05 vs control
[6] = cardiac muscle, 30 min of AICAriboside infusion
[7] = cardiac muscle, 30 min of AICAriboside infusion, P < 0.05 vs control
[8] = cardiac muscle, 30 min postinfusion
[9] = cardiac muscle, 30 min postinfusion, P < 0.05 vs control
[10] = cardiac muscle, 42 min of AICAriboside infusion
[11] = cardiac muscle, 60 min postinfusion
[12] = endo, 24 Hr postischemic (first column)
[13] = endo, 24 Hr postischemic (second column so headed)
[14] = epi, 24 Hr postischemic (first column)
[15] = epi, 24 Hr postischemic (second column so headed)
[16] = epi, 24 Hr postischemic (second column so headed), P < 0.05 vs saline

NC(=O)c1ncn([C@@H]2O[C@H](CO)[C@@H](O)[C@H]2O)c1N [AICAriboside, 5-amino-4-imidazolecarboxamide riboside]
myocardial content of CTP (cardiac muscle; AICAriboside infusion): no detectable change | mean content of AICAriboside in cardiac muscle greater than that of skeletal muscle (cardiac muscle; after 30 min of infusion): 66% | adenylosuccinate in biopsies (cardiac muscle; before, during or after infusion, lower limit of detection 3 nmol/g, wet weight): not detectable | adenylate energy charge (cardiac muscle; cardiac muscle, 0.929±0.003 before infusion, during course of experiment): did not vary | ADP (cardiac muscle; [1]): 0.83 ± 0.05 μmol/g, wet weight | AMP (cardiac muscle; [1]): 0.054 ± 0.007 μmol/g, wet weight | Hyp (hypoxanthine) (cardiac muscle; [1]): 0.016 ± 0.008 μmol/g, wet weight | Ino (inosine) (cardiac muscle; [1]): 0.009 ± 0.001 μmol/g, wet weight | ATP (cardiac muscle; [2]): 6.07 ± 0.17 μmol/g, wet weight | IMP (cardiac muscle; [2]): 0.018 ± 0.003 μmol/g, wet weight | ADP (cardiac muscle; [3]): 0.77 ± 0.06 μmol/g, wet weight | AMP (cardiac muscle; [3]): 0.056 ± 0.008 μmol/g, wet weight | ATP (cardiac muscle; [3]): 5.77 ± 0.24 μmol/g, wet weight | IMP (cardiac muscle; [3]): 0.020 ± 0.007 μmol/g, wet weight | ADP (cardiac muscle; [4]): 0.81 ± 0.04 μmol/g, wet weight | AMP (cardiac muscle; [4]): 0.054 ± 0.005 μmol/g, wet weight | Hyp (hypoxanthine) (cardiac muscle; [4]): 0.007 ± 0.002 μmol/g, wet weight | IMP (cardiac muscle; [4]): 0.017 ± 0.005 μmol/g, wet weight | Ino (inosine) (cardiac muscle; [4]): 0.007 ± 0.001 μmol/g, wet weight | ATP (cardiac muscle; [5]): 5.83 ± 0.14 μmol/g, wet weight | ADP (cardiac muscle; [6]): 0.82 ± 0.03 μmol/g, wet weight | AMP (cardiac muscle; [6]): 0.050 ± 0.005 μmol/g, wet weight | Hyp (hypoxanthine) (cardiac muscle; [6]): 0.013 ± 0.006 μmol/g, wet weight | IMP (cardiac muscle; [6]): 0.030 ± 0.021 μmol/g, wet weight | Ino (inosine) (cardiac muscle; [6]): 0.012 ± 0.001 μmol/g, wet weight | ATP (cardiac muscle; [7]): 5.89 ± 0.16 μmol/g, wet weight | ADP (cardiac muscle; [8]): 0.84 ± 0.03 μmol/g, wet weight | AMP (cardiac muscle; [8]): 0.055 ± 0.006 μmol/g, wet weight | Hyp (hypoxanthine) (cardiac muscle; [8]): 0.003 ± 0.002 μmol/g, wet weight | Ino (inosine) (cardiac muscle; [8]): 0.009 ± 0.002 μmol/g, wet weight | ATP (cardiac muscle; [9]): 5.98 ± 0.07 μmol/g, wet weight | IMP (cardiac muscle; [9]): 0.016 ± 0.003 μmol/g, wet weight | ADP (cardiac muscle; [10]): 0.77 ± 0.03 μmol/g, wet weight | AMP (cardiac muscle; [10]): 0.053 ± 0.007 μmol/g, wet weight | ATP (cardiac muscle; [10]): 5.77 ± 0.28 μmol/g, wet weight | IMP (cardiac muscle; cardiac muscle, 42 min of AICAriboside infusion, P < 0.05 vs control): 0.019 ± 0.006 μmol/g, wet weight | ADP (cardiac muscle; [11]): 0.82 ± 0.04 μmol/g, wet weight | AMP (cardiac muscle; [11]): 0.052 ± 0.006 μmol/g, wet weight | ATP (cardiac muscle; [11]): 5.72 ± 0.27 μmol/g, wet weight | Hyp (hypoxanthine) (cardiac muscle; [11]): 0.001 ± 0.001 μmol/g, wet weight | Ino (inosine) (cardiac muscle; [11]): 0.006 ± 0.001 μmol/g, wet weight | IMP (cardiac muscle; cardiac muscle, 60 min postinfusion, P < 0.05 vs control): 0.017 ± 0.003 μmol/g, wet weight | increase in IMP content (cardiac muscle; cardiac muscle, AICAriboside infusion): 3-4 fold | maximum UTP content (cardiac muscle; cardiac muscle, from basal 0.126±0.009, p<0.005): 0.157±0.006 μmol/g, wet weight | guanine nucleotide content (GDP+GTP) (cardiac muscle; cardiac muscle, significant at one time point only): tended to increase | dogs with guanine nucleotide pool remaining elevated (cardiac muscle; cardiac muscle, up to 60 min after infusion discontinued): 6 of 7 | adenosine content (cardiac muscle; cardiac or skeletal muscle, during infusion): did not increase | AMP and ADP content change (cardiac muscle; cardiac tissue, any time point): did not change significantly | increased ATP content (cardiac muscle; cardiac tissue, from 5.55±0.17, p<0.02): 6.07±0.17 μmol/g, wet weight | accumulation of AICAriboside-TP (cardiac muscle; cardiac vs skeletal muscle, quantitated with extinction coefficient of AICAR): greater in cardiac muscle | maximum TAN (total adenine nucleotide) (cardiac muscle; heart muscle, from basal 6.40±0.20, p<0.005): 6.96±0.20 μmol/g, wet weight | content of NAD^+ (cardiac muscle; heart, throughout infusion, did not vary): 0.64 ± 0.01 µmol/g | UTP pool increase (cardiac muscle; myocardial cells, following AICAriboside infusion): 25% | content of inosine and hypoxanthine (cardiac muscle; myocardial, throughout the study): only minimally increased | TAN (cardiac muscle; [2]): 6.96 ± 0.20 μmol/g, wet weight | TAN (cardiac muscle; [3]): 6.59 ± 0.29 μmol/g, wet weight | TAN (cardiac muscle; [5]): 6.70 ± 0.10 μmol/g, wet weight | TAN (cardiac muscle; [7]): 6.77 ± 0.16 μmol/g, wet weight | TAN (cardiac muscle; [9]): 6.87 ± 0.10 μmol/g, wet weight | TAN (cardiac muscle; [10]): 6.59 ± 0.27 μmol/g, wet weight | TAN (cardiac muscle; [11]): 6.59 ± 0.24 μmol/g, wet weight | GTP content restoration (postischemic myocardium; 24 hours of reperfusion, saline 82% (epi), 78% (endo) of nonischemic levels): restored to nonischemic levels | ADP (postischemic myocardium; [12]): 0.78 ± 0.09 μmol/g wet wt | AMP (postischemic myocardium; [12]): 0.056 ± 0.019 μmol/g wet wt | CP (creatine phosphate) (postischemic myocardium; [12]): 7.8 ± 1.1 μmol/g wet wt | CTP (postischemic myocardium; [12]): 0.052 ± 0.005 μmol/g wet wt | NAD (postischemic myocardium; [12]): 0.57 ± 0.02 μmol/g wet wt | UTP (postischemic myocardium; [12]): 0.121 ± 0.013 μmol/g wet wt | IMP (postischemic myocardium; endo, 24 Hr postischemic (first column), P < 0.05 vs saline): 0.027 ± 0.007 μmol/g wet wt | ADP (postischemic myocardium; [13]): 0.75 ± 0.07 μmol/g wet wt | AMP (postischemic myocardium; [13]): 0.041 ± 0.005 μmol/g wet wt | CP (creatine phosphate) (postischemic myocardium; [13]): 6.9 ± 0.5 μmol/g wet wt | CTP (postischemic myocardium; [13]): 0.056 ± 0.004 μmol/g wet wt | NAD (postischemic myocardium; [13]): 0.60 ± 0.05 μmol/g wet wt | UTP (postischemic myocardium; [13]): 0.106 ± 0.011 μmol/g wet wt | IMP (postischemic myocardium; endo, 24 Hr postischemic (second column so headed), P < 0.05 vs saline): 0.017 ± 0.004 μmol/g wet wt | ADP (postischemic myocardium; endo, occlusion): 0.86 ± 0.06 μmol/g wet wt | AMP (postischemic myocardium; endo, occlusion): 0.089 ± 0.012 μmol/g wet wt | CP (creatine phosphate) (postischemic myocardium; endo, occlusion): 2.0 ± 0.3 μmol/g wet wt | CTP (postischemic myocardium; endo, occlusion): 0.016 ± 0.003 μmol/g wet wt | IMP (postischemic myocardium; endo, occlusion): 0.008 ± 0.002 μmol/g wet wt | NAD (postischemic myocardium; endo, occlusion): 0.45 ± 0.02 μmol/g wet wt | UTP (postischemic myocardium; endo, occlusion): 0.055 ± 0.007 μmol/g wet wt | increase in ATP content (postischemic myocardium; endo, previously ischemic region, 24 hours of reperfusion, saline 21%): 63% | ATP content vs saline-treated (postischemic myocardium; epi and endo, previously ischemic region, 24 hours of reperfusion, P<0.001): greater in the AICAriboside group | ADP (postischemic myocardium; [14]): 0.73 ± 0.05 μmol/g wet wt | AMP (postischemic myocardium; [14]): 0.048 ± 0.009 μmol/g wet wt | CP (creatine phosphate) (postischemic myocardium; [14]): 7.1 ± 0.5 μmol/g wet wt | CTP (postischemic myocardium; [14]): 0.051 ± 0.004 μmol/g wet wt | NAD (postischemic myocardium; [14]): 0.56 ± 0.03 μmol/g wet wt | UTP (postischemic myocardium; [14]): 0.104 ± 0.121 μmol/g wet wt | IMP (postischemic myocardium; epi, 24 Hr postischemic (first column), P < 0.05 vs saline): 0.025 ± 0.007 μmol/g wet wt | ADP (postischemic myocardium; [15]): 0.70 ± 0.05 μmol/g wet wt | AMP (postischemic myocardium; [15]): 0.036 ± 0.005 μmol/g wet wt | CP (creatine phosphate) (postischemic myocardium; [15]): 7.8 ± 0.5 μmol/g wet wt | CTP (postischemic myocardium; [15]): 0.051 ± 0.005 μmol/g wet wt | UTP (postischemic myocardium; [15]): 0.096 ± 0.008 μmol/g wet wt | IMP (postischemic myocardium; [16]): 0.015 ± 0.004 μmol/g wet wt | NAD (postischemic myocardium; [16]): 0.55 ± 0.02 μmol/g wet wt | ADP (postischemic myocardium; epi, occlusion): 0.99 ± 0.11 μmol/g wet wt | AMP (postischemic myocardium; epi, occlusion): 0.135 ± 0.045 μmol/g wet wt | CP (creatine phosphate) (postischemic myocardium; epi, occlusion): 2.9 ± 0.7 μmol/g wet wt | CTP (postischemic myocardium; epi, occlusion): 0.023 ± 0.003 μmol/g wet wt | IMP (postischemic myocardium; epi, occlusion): 0.007 ± 0.001 μmol/g wet wt | NAD (postischemic myocardium; epi, occlusion): 0.47 ± 0.03 μmol/g wet wt | UTP (postischemic myocardium; epi, occlusion): 0.061 ± 0.007 μmol/g wet wt | increase in ATP content (postischemic myocardium; epi, previously ischemic region, 24 hours of reperfusion, saline 2%): 41% | GTP content vs saline (postischemic myocardium; epicardium and endocardium of previously ischemic region, 24 hours of reperfusion, P<0.003): greater in the AICAriboside group | AMP or ADP content vs saline (postischemic myocardium; postischemic region): no detectable differences | UTP, CTP, or NAD^+ content vs saline (postischemic myocardium; postischemic region): no statistically significant differences | total adenine nucleotide content (ATP+ADP+AMP) vs saline (postischemic myocardium; postischemic region): greater in the AICAriboside group | creatine phosphate content restoration (postischemic myocardium; postischemic regions, both groups): restored to preocclusion levels | creatine phosphate fall at end of occlusion (postischemic myocardium; vs saline): fell to a comparable extent | percentage drop in ATP during ischemia (postischemic myocardium; vs saline): comparable in both groups
